Literature values as cited in patent publication US20060083786A1 (Glenmark Pharmaceuticals Limited, priority 2004, published 2006).

Details: in vivo

SMILES: O=C(O)COCCN1CCN([C@H](c2ccccc2)c2ccc(Cl)cc2)CC1 [Levocetirizine]
- side effects on the central nervous system: free from side effects
